Reference: publication PMC9481151, “Discovery of new symmetrical and asymmetrical nitrile-containing 1,4-dihydropyridine derivatives as dual kinases and P-glycoprotein inhibitors: synthesis, in vitro assays, and in silico studies” (Journal of Enzyme Inhibition and Medicinal Chemistry, 2022)

Tests used:
[1] = test system: MALME-3M; test: NCI single dose (10 µM) SRB screen; type: cell-based, human; conditions: melanoma, 48 h
[2] = test system: OVCAR-4; test: NCI single dose (10 µM) SRB screen; type: cell-based, human; conditions: ovarian cancer, 48 h
[3] = test system: HL-60(TB); test: NCI single dose (10 µM) SRB screen; type: cell-based, human; conditions: leukaemia, 48 h
[4] = test system: MDA-MB-231; test: NCI single dose (10 µM) SRB screen; type: cell-based, human; conditions: breast cancer, 48 h
[5] = test system: HOP-62; test: NCI single dose (10 µM) SRB screen; type: cell-based, human; conditions: non-small cell lung cancer, 48 h
[6] = test system: NCI-H23; test: NCI single dose (10 µM) SRB screen; type: cell-based, human; conditions: non-small cell lung cancer, 48 h
[7] = test system: K-562; test: NCI single dose (10 µM) SRB screen; type: cell-based, human; conditions: leukaemia, 48 h
[8] = test system: SW-620; test: NCI single dose (10 µM) SRB screen; type: cell-based, human; conditions: colon cancer, 48 h
[9] = test system: SF-268; test: NCI single dose (10 µM) SRB screen; type: cell-based, human; conditions: CNS cancer, 48 h
[10] = test system: HCT-15; test: NCI single dose (10 µM) SRB screen; type: cell-based, human; conditions: colon cancer, 48 h
[11] = test system: BT-549; test: NCI single dose (10 µM) SRB screen; type: cell-based, human; conditions: breast cancer, 48 h
[12] = test system: UACC-62; test: NCI single dose (10 µM) SRB screen; type: cell-based, human; conditions: melanoma, 48 h
[13] = test system: Pseudomonas aeruginosa; test: Agar well diffusion method
[14] = test system: RXF 393; test: NCI single dose (10 µM) SRB screen; type: cell-based, human; conditions: renal cancer, 48 h
[15] = test system: NCI-H522; test: NCI single dose (10 µM) SRB screen; type: cell-based, human; conditions: non-small cell lung cancer, 48 h
[16] = test system: SK-OV-3; test: NCI single dose (10 µM) SRB screen; type: cell-based, human; conditions: ovarian cancer, 48 h
[17] = test system: NCI 60 cancer cell lines; test: NCI single dose (10 µM) SRB screen, mean over panel; type: cell-based, human; conditions: mean over 60 cell lines, 48 h
[18] = test system: MOLT-4; test: NCI single dose (10 µM) SRB screen; type: cell-based, human; conditions: leukaemia, 48 h
[19] = test system: LOX IMVI; test: NCI single dose (10 µM) SRB screen; type: cell-based, human; conditions: melanoma, 48 h
[20] = test system: SN12C; test: NCI single dose (10 µM) SRB screen; type: cell-based, human; conditions: renal cancer, 48 h
[21] = test system: SNB-19; test: NCI single dose (10 µM) SRB screen; type: cell-based, human; conditions: CNS cancer, 48 h
[22] = test system: 786-0; test: NCI single dose (10 µM) SRB screen; type: cell-based, human; conditions: renal cancer, 48 h
[23] = test system: SF-539; test: NCI single dose (10 µM) SRB screen; type: cell-based, human; conditions: CNS cancer, 48 h
[24] = test system: OVCAR-3; test: NCI single dose (10 µM) SRB screen; type: cell-based, human; conditions: ovarian cancer, 48 h
[25] = test system: Staphylococcus aureus; test: Agar well diffusion method
[26] = test system: OVCAR-8; test: NCI single dose (10 µM) SRB screen; type: cell-based, human; conditions: ovarian cancer, 48 h
[27] = test system: SR; test: NCI single dose (10 µM) SRB screen; type: cell-based, human; conditions: leukaemia, 48 h
[28] = test system: UO-31; test: NCI single dose (10 µM) SRB screen; type: cell-based, human; conditions: renal cancer, 48 h
[29] = test system: T-47D; test: NCI single dose (10 µM) SRB screen; type: cell-based, human; conditions: breast cancer, 48 h
[30] = test system: A498; test: NCI single dose (10 µM) SRB screen; type: cell-based, human; conditions: renal cancer, 48 h
[31] = test system: MCF7; test: NCI single dose (10 µM) SRB screen; type: cell-based, human; conditions: breast cancer, 48 h
[32] = test system: U251; test: NCI single dose (10 µM) SRB screen; type: cell-based, human; conditions: CNS cancer, 48 h
[33] = test system: MDA-MB-468; test: NCI single dose (10 µM) SRB screen; type: cell-based, human; conditions: breast cancer, 48 h
[34] = test system: MDA-MB-435; test: NCI single dose (10 µM) SRB screen; type: cell-based, human; conditions: melanoma, 48 h
[35] = test system: SNB-75; test: NCI single dose (10 µM) SRB screen; type: cell-based, human; conditions: CNS cancer, 48 h
[36] = test system: Bacillus subtilis; test: Agar well diffusion method
[37] = test system: SK-MEL-28; test: NCI single dose (10 µM) SRB screen; type: cell-based, human; conditions: melanoma, 48 h
[38] = test system: HCC-2998; test: NCI single dose (10 µM) SRB screen; type: cell-based, human; conditions: colon cancer, 48 h
[39] = test system: SF-295; test: NCI single dose (10 µM) SRB screen; type: cell-based, human; conditions: CNS cancer, 48 h
[40] = test system: UACC-257; test: NCI single dose (10 µM) SRB screen; type: cell-based, human; conditions: melanoma, 48 h
[41] = test system: HCT-116; test: NCI single dose (10 µM) SRB screen; type: cell-based, human; conditions: colon cancer, 48 h
[42] = test system: EKVX; test: NCI single dose (10 µM) SRB screen; type: cell-based, human; conditions: non-small cell lung cancer, 48 h
[43] = test system: PC-3; test: NCI single dose (10 µM) SRB screen; type: cell-based, human; conditions: prostate cancer, 48 h
[44] = test system: M14; test: NCI single dose (10 µM) SRB screen; type: cell-based, human; conditions: melanoma, 48 h
[45] = test system: NCI-H322M; test: NCI single dose (10 µM) SRB screen; type: cell-based; conditions: non-small cell lung cancer, 48 h
[46] = test system: RPMI-8226; test: NCI single dose (10 µM) SRB screen; type: cell-based, human; conditions: leukaemia, 48 h
[47] = test system: A549/ATCC; test: NCI single dose (10 µM) SRB screen; type: cell-based, human; conditions: non-small cell lung cancer, 48 h
[48] = test system: NCI/ADR-RES; test: NCI single dose (10 µM) SRB screen; type: cell-based, human; conditions: ovarian cancer, 48 h
[49] = test system: NCI-H460; test: NCI single dose (10 µM) SRB screen; type: cell-based, human; conditions: non-small cell lung cancer, 48 h
[50] = test system: COLO 205; test: NCI single dose (10 µM) SRB screen; type: cell-based, human; conditions: colon cancer, 48 h
[51] = test system: CCRF-CEM; test: NCI single dose (10 µM) SRB screen; type: cell-based, human; conditions: leukaemia, 48 h
[52] = test system: DU-145; test: NCI single dose (10 µM) SRB screen; type: cell-based, human; conditions: prostate cancer, 48 h

CCOC(=O)C1=C(C)NC(C)=C(C(=O)OCCOC)C1c1cccc(C#N)c1 (racemic) [Compound 2k, (±)-3-Ethyl 5-(2-methoxyethyl) 4-(3-cyanophenyl)-2,6-dimethyl-1,4-dihydropyridine-3,5-dicarboxylate]
GI% MALME-3M [1]: – (Only GI% ≥ 10 are shown)
GI% OVCAR-4 [2]: – (Only GI% ≥ 10 are shown)
GI% HL-60(TB) [3]: 12%
GI% MDA-MB-231 [4]: – (Only GI% ≥ 10 are shown)
GI% HOP-62 [5]: – (Only GI% ≥ 10 are shown)
GI% NCI-H23 [6]: – (Only GI% ≥ 10 are shown)
GI% K-562 [7]: 10%
GI% SW-620 [8]: – (Only GI% ≥ 10 are shown)
GI% SF-268 [9]: – (Only GI% ≥ 10 are shown)
GI% HCT-15 [10]: – (Only GI% ≥ 10 are shown)
GI% BT-549 [11]: – (Only GI% ≥ 10 are shown)
GI% UACC-62 [12]: – (Only GI% ≥ 10 are shown)
zone of inhibition at 1000 µg/mL ([13]; Pseudomonas aeruginosa, 24 h, read-out: Diameter of inhibition zone, P. aeruginosa): 20 mm
% activity index, P. aeruginosa ([13]; relative to ciprofloxacin): 86.9%
GI% RXF 393 [14]: – (Only GI% ≥ 10 are shown)
GI% NCI-H522 [15]: – (Only GI% ≥ 10 are shown)
GI% SK-OV-3 [16]: – (Only GI% ≥ 10 are shown)
Mean GI% [17]: −1%
GI% MOLT-4 [18]: – (Only GI% ≥ 10 are shown)
GI% LOX IMVI [19]: – (Only GI% ≥ 10 are shown)
GI% SN12C [20]: – (Only GI% ≥ 10 are shown)
GI% SNB-19 [21]: – (Only GI% ≥ 10 are shown)
GI% 786-0 [22]: – (Only GI% ≥ 10 are shown)
GI% SF-539 [23]: – (Only GI% ≥ 10 are shown)
GI% OVCAR-3 [24]: – (Only GI% ≥ 10 are shown)
zone of inhibition at 1000 µg/mL ([25]; Staphylococcus aureus, 24 h, read-out: Diameter of inhibition zone, S. aureus): 17 mm
% activity index, S. aureus ([25]; relative to ciprofloxacin): 70.8%
GI% OVCAR-8 [26]: – (Only GI% ≥ 10 are shown)
GI% SR [27]: 13%
GI% UO-31 [28]: – (Only GI% ≥ 10 are shown)
GI% T-47D [29]: – (Only GI% ≥ 10 are shown)
GI% A498 [30]: 21%
GI% MCF7 [31]: – (Only GI% ≥ 10 are shown)
GI% U251 [32]: – (Only GI% ≥ 10 are shown)
GI% MDA-MB-468 [33]: – (Only GI% ≥ 10 are shown)
GI% MDA-MB-435 [34]: – (Only GI% ≥ 10 are shown)
GI% SNB-75 [35]: – (Only GI% ≥ 10 are shown)
zone of inhibition at 1000 µg/mL ([36]; Bacillus subtilis, 24 h, read-out: Diameter of inhibition zone, B. subtilis): 13 mm
% activity index, B. subtilis ([36]; relative to ciprofloxacin): 56.5%
GI% SK-MEL-28 [37]: – (Only GI% ≥ 10 are shown)
GI% HCC-2998 [38]: – (Only GI% ≥ 10 are shown)
GI% SF-295 [39]: – (Only GI% ≥ 10 are shown)
GI% UACC-257 [40]: – (Only GI% ≥ 10 are shown)
GI% HCT-116 [41]: – (Only GI% ≥ 10 are shown)
GI% EKVX [42]: – (Only GI% ≥ 10 are shown)
GI% PC-3 [43]: – (Only GI% ≥ 10 are shown)
GI% M14 [44]: – (Only GI% ≥ 10 are shown)
GI% NCI-H322M [45]: – (Only GI% ≥ 10 are shown)
GI% RPMI-8226 [46]: – (Only GI% ≥ 10 are shown)
GI% A549/ATCC [47]: – (Only GI% ≥ 10 are shown)
GI% NCI/ADR-RES [48]: – (Only GI% ≥ 10 are shown)
GI% NCI-H460 [49]: – (Only GI% ≥ 10 are shown)
GI% COLO 205 [50]: – (Only GI% ≥ 10 are shown)
GI% CCRF-CEM [51]: – (Only GI% ≥ 10 are shown)
GI% DU-145 [52]: – (Only GI% ≥ 10 are shown)
